# Results published in ChEMBL document CHEMBL6083215, “Structure elucidation, absolute configuration, and biological evaluation of cyclic peroxides from the sponge Plakinastrella sp” (2024).
# Assays:
# Assay type in all cases: functional
# PC-3 = test: Growth inhibition of human PC-3 cells
# M14 = test: Growth inhibition of human M14 cells
# A498 = test: Growth inhibition of human A498 cells
# SNB-19 = test: Growth inhibition of human SNB-19 cells
# NCI-H460 = test: Growth inhibition of human NCI-H460 cells
# U-251 = test: Growth inhibition of human U-251 cells
# NCI-H522 = test: Growth inhibition of human NCI-H522 cells
# K562 = test: Growth inhibition of human K562 cells
# SNB-75 = test: Growth inhibition of human SNB-75 cells
# HCT-15 = test: Growth inhibition of human HCT-15 cells
# BT-549 = test: Growth inhibition of human BT-549 cells
# Hs-578T = test: Growth inhibition of human HS 578T cells
# SF-268 = test: Growth inhibition of human SF-268 cells
# MDA-MB-231 = test: Growth inhibition of human MDA-MB-231 cells
# TK-10 = test: Growth inhibition of human TK-10 cells
# EKVX = test: Growth inhibition of human EKVX cells
# SF-539 = test: Growth inhibition of human SF-539 cells
# MDA-MB-468 = test: Growth inhibition of human MDA-MB-468 cells
# NCI-H322M = test: Growth inhibition of human NCI-H322M cells
# COLO 205 = test: Growth inhibition of human COLO 205 cells
# HT-29 = test: Growth inhibition of human HT-29 cells
# DU-145 = test: Growth inhibition of human DU-145 cells
# MOLT-4 = test: Growth inhibition of human MOLT-4 cells
# UACC-62 = test: Growth inhibition of human UACC-62 cells
# LOX IMVI = test: Growth inhibition of human LOX IMVI cells
# CCRF-CEM = test: Growth inhibition of human CCRF-CEM cells
# CAKI-1 = test: Growth inhibition of human CAKI-1 cells
# ACHN = test: Growth inhibition of human ACHN cells
# SN12C = test: Growth inhibition of human SN12C cells
# NCI-H226 = test: Growth inhibition of human NCI-H226 cells
# HL-60(TB) = test: Growth inhibition of human HL-60(TB) cells
# UACC-257 = test: Growth inhibition of human UACC-257 cells
# RXF 393 = test: Growth inhibition of human RXF 393 cells
# HCT-116 = test: Growth inhibition of human HCT-116 cells
# Malme-3M = test: Growth inhibition of human Malme-3M cells
# SR = test: Growth inhibition of human SR cells
# SK-MEL-5 = test: Growth inhibition of human SK-MEL-5 cells
# NCI-H23 = test: Growth inhibition of human NCI-H23 cells
# OVCAR-5 = test: Growth inhibition of human OVCAR-5 cells
# MDA-MB-435 = test: Growth inhibition of human MDA-MB-435 cells
# A549 = test: Growth inhibition of human A549 cells
# UO-31 = test: Growth inhibition of human UO-31 cells
# KM12 = test: Growth inhibition of human KM12 cells
# 786-0 = test: Growth inhibition of human 786-0 cells
# OVCAR-3 = test: Growth inhibition of human OVCAR-3 cells
# SK-MEL-28 = test: Growth inhibition of human SK-MEL-28 cells
# SK-OV-3 = test: Growth inhibition of human SK-OV-3 cells
# SF-295 = test: Growth inhibition of human SF-295 cells
# OVCAR-4 = test: Growth inhibition of human OVCAR-4 cells
# HOP-62 = test: Growth inhibition of human HOP-62 cells
# OVCAR-8 = test: Growth inhibition of human OVCAR-8 cells
# HOP-92 = test: Growth inhibition of human HOP-92 cells
# RPMI-8226 = test: Growth inhibition of human RPMI-8226 cells
# MCF7 = test: Growth inhibition of human MCF7 cells
# HCC 2998 = test: Growth inhibition of human HCC 2998 cells
# NCI/ADR-RES = test: Growth inhibition of human NCI-ADR-RES cells
# IGROV-1 = test: Growth inhibition of human IGROV-1 cells
# SW-620 = test: Growth inhibition of human SW620 cells
# SK-MEL-2 = test: Growth inhibition of human SK-MEL-2 cells
# T47D = test: Growth inhibition of human T47D cells
compound,measurement,setting,value
CCCCCCCCC/C=C(/C)CC(C)(O)CC(C)C(O)CC(=O)OC (configuration not stated),GI50,PC-3,> 100000 nM
same,GI50,M14,> 100000 nM
same,GI50,A498,> 100000 nM
same,GI50,SNB-19,> 100000 nM
same,GI50,NCI-H460,> 100000 nM
same,GI50,U-251,> 100000 nM
same,GI50,NCI-H522,> 100000 nM
same,GI50,K562,> 100000 nM
same,GI50,SNB-75,> 100000 nM
same,GI50,HCT-15,> 100000 nM
same,GI50,BT-549,> 100000 nM
same,GI50,Hs-578T,> 100000 nM
same,GI50,SF-268,> 100000 nM
same,GI50,MDA-MB-231,> 100000 nM
same,GI50,TK-10,> 100000 nM
same,GI50,EKVX,> 100000 nM
same,GI50,SF-539,> 100000 nM
same,GI50,MDA-MB-468,> 100000 nM
same,GI50,NCI-H322M,> 100000 nM
same,GI50,COLO 205,> 100000 nM
same,GI50,HT-29,> 100000 nM
same,GI50,DU-145,> 100000 nM
same,GI50,MOLT-4,> 100000 nM
same,GI50,UACC-62,> 100000 nM
same,GI50,LOX IMVI,> 100000 nM
same,GI50,CCRF-CEM,> 100000 nM
same,GI50,CAKI-1,> 100000 nM
same,GI50,ACHN,> 100000 nM
same,GI50,SN12C,> 100000 nM
same,GI50,NCI-H226,> 100000 nM
same,GI50,HL-60(TB),> 100000 nM
same,GI50,UACC-257,> 100000 nM
same,GI50,RXF 393,> 100000 nM
same,GI50,HCT-116,> 100000 nM
same,GI50,Malme-3M,> 100000 nM
same,GI50,SR,> 100000 nM
same,GI50,SK-MEL-5,> 100000 nM
same,GI50,NCI-H23,> 100000 nM
same,GI50,OVCAR-5,> 100000 nM
same,GI50,MDA-MB-435,> 100000 nM
same,GI50,A549,> 100000 nM
same,GI50,UO-31,> 100000 nM
same,GI50,KM12,> 100000 nM
same,GI50,786-0,> 100000 nM
same,GI50,OVCAR-3,> 100000 nM
same,GI50,SK-MEL-28,> 100000 nM
same,GI50,SK-OV-3,> 100000 nM
same,GI50,SF-295,> 100000 nM
same,GI50,OVCAR-4,> 100000 nM
same,GI50,HOP-62,> 100000 nM
same,GI50,OVCAR-8,> 100000 nM
same,GI50,HOP-92,> 100000 nM
same,GI50,RPMI-8226,> 100000 nM
same,GI50,MCF7,> 100000 nM
same,GI50,HCC 2998,> 100000 nM
same,GI50,NCI/ADR-RES,> 100000 nM
same,GI50,IGROV-1,> 100000 nM
same,GI50,SW-620,> 100000 nM
same,GI50,SK-MEL-2,> 100000 nM
same,GI50,T47D,> 100000 nM
CCCCCCCCC/C=C(/C)C[C@]1(C)C[C@H](C)[C@@H](CC(=O)O)OO1,GI50,PC-3,980 nM
same,GI50,M14,980 nM
same,GI50,A498,980 nM
same,GI50,SNB-19,980 nM
same,GI50,NCI-H460,980 nM
same,GI50,U-251,980 nM
same,GI50,NCI-H522,980 nM
same,GI50,K562,980 nM
same,GI50,SNB-75,980 nM
same,GI50,HCT-15,980 nM
same,GI50,BT-549,980 nM
same,GI50,Hs-578T,980 nM
same,GI50,SF-268,980 nM
same,GI50,MDA-MB-231,980 nM
same,GI50,TK-10,980 nM
same,GI50,EKVX,980 nM
same,GI50,SF-539,980 nM
same,GI50,MDA-MB-468,980 nM
same,GI50,NCI-H322M,980 nM
same,GI50,COLO 205,980 nM
same,GI50,HT-29,980 nM
same,GI50,DU-145,980 nM
same,GI50,MOLT-4,980 nM
same,GI50,UACC-62,980 nM
same,GI50,LOX IMVI,110 nM
same,GI50,CCRF-CEM,980 nM
same,GI50,CAKI-1,980 nM
same,GI50,ACHN,980 nM
same,GI50,SN12C,980 nM
same,GI50,NCI-H226,980 nM
same,GI50,HL-60(TB),220 nM
same,GI50,UACC-257,980 nM
same,GI50,RXF 393,980 nM
same,GI50,HCT-116,980 nM
same,GI50,Malme-3M,980 nM
same,GI50,SR,980 nM
same,GI50,SK-MEL-5,980 nM
same,GI50,NCI-H23,980 nM
same,GI50,OVCAR-5,980 nM
same,GI50,MDA-MB-435,980 nM
same,GI50,A549,980 nM
same,GI50,UO-31,190 nM
same,GI50,KM12,980 nM
same,GI50,786-0,980 nM
same,GI50,OVCAR-3,980 nM
same,GI50,SK-MEL-28,980 nM
same,GI50,SK-OV-3,980 nM
same,GI50,SF-295,980 nM
same,GI50,OVCAR-4,980 nM
same,GI50,HOP-62,980 nM
same,GI50,OVCAR-8,980 nM
same,GI50,HOP-92,980 nM
same,GI50,RPMI-8226,980 nM
same,GI50,MCF7,980 nM
same,GI50,HCC 2998,980 nM
same,GI50,NCI/ADR-RES,980 nM
same,GI50,IGROV-1,980 nM
same,GI50,SW-620,980 nM
same,GI50,SK-MEL-2,980 nM
same,GI50,T47D,980 nM
COc1cccc2c1C(=O)c1c(O)c3c(c(O)c1C2=O)C[C@@](O)(C(=O)CO)C[C@@H]3O[C@H]1C[C@H](N)[C@H](O)[C@H](C)O1 [DOXORUBICIN],GI50,PC-3,120 nM
same,GI50,M14,120 nM
same,GI50,A498,120 nM
same,GI50,SNB-19,120 nM
same,GI50,NCI-H460,120 nM
same,GI50,U-251,120 nM
same,GI50,NCI-H522,120 nM
same,GI50,K562,120 nM
same,GI50,SNB-75,120 nM
same,GI50,HCT-15,120 nM
same,GI50,BT-549,120 nM
same,GI50,Hs-578T,120 nM
same,GI50,SF-268,120 nM
same,GI50,MDA-MB-231,120 nM
same,GI50,TK-10,120 nM
same,GI50,EKVX,120 nM
same,GI50,SF-539,120 nM
same,GI50,MDA-MB-468,120 nM
same,GI50,NCI-H322M,120 nM
same,GI50,COLO 205,120 nM
same,GI50,HT-29,120 nM
same,GI50,DU-145,120 nM
same,GI50,MOLT-4,120 nM
same,GI50,UACC-62,120 nM
same,GI50,CCRF-CEM,120 nM
same,GI50,CAKI-1,120 nM
same,GI50,ACHN,120 nM
same,GI50,SN12C,120 nM
same,GI50,NCI-H226,120 nM
same,GI50,UACC-257,120 nM
same,GI50,RXF 393,120 nM
same,GI50,HCT-116,120 nM
same,GI50,Malme-3M,120 nM
same,GI50,SR,120 nM
same,GI50,SK-MEL-5,120 nM
same,GI50,NCI-H23,120 nM
same,GI50,OVCAR-5,120 nM
same,GI50,MDA-MB-435,120 nM
same,GI50,A549,120 nM
same,GI50,KM12,120 nM
same,GI50,786-0,120 nM
same,GI50,OVCAR-3,120 nM
same,GI50,SK-MEL-28,120 nM
same,GI50,SK-OV-3,120 nM
same,GI50,SF-295,120 nM
same,GI50,OVCAR-4,120 nM
same,GI50,HOP-62,120 nM
same,GI50,OVCAR-8,120 nM
same,GI50,HOP-92,120 nM
same,GI50,RPMI-8226,120 nM
same,GI50,MCF7,120 nM
same,GI50,HCC 2998,120 nM
same,GI50,NCI/ADR-RES,120 nM
same,GI50,IGROV-1,120 nM
same,GI50,SW-620,120 nM
same,GI50,SK-MEL-2,120 nM
same,GI50,T47D,120 nM
